Values joined by “and” are separate entries in the source; they are usually repeats but may differ in a detail not shown here. Equal entries are not always repeated.
Experiments:
[1] = Photostability study: irradiation with a 200 W soft white bulb, fluorescence of aliquots vs. time; format: physicochemical; conditions: 50 nM in pH 10 borate buffer, 200 watt soft white bulb at 10 cm, excitation at 459 nm, FIG. 4
Description: FIG. 4. Photostability comparison vs. time (hour) of 5 (*), 8 (▪), fluorescein (Δ) and BODIPY FL (♦); concentration 50 nM in pH 10 borate buffer. Excited at 459 nm for 5 and 8, 488 nm for fluorescein, 505 nm for BODIPY FL.
The photostability study was conducted by irradiating a 50 nM pH 10 sample solution of each dye (1, BODIPY-FL, 5 and 8) using a Hotspot lamp (Cheltenham, Pa.) with a 200W soft white bulb (General Electric, Canada), positioned at a distance of 10 cm between the sample and the bulb. The sample solution was cooled by circulating room temperature water. Fluorescence spectra were recorded on aliquots taken as a function of time.

[2] = UV absorbance spectrum in pH 10 borate buffer; format: physicochemical; conditions: 10 μM, inset of FIG. 3
Description: FIG. 3. Fluorescence spectra. Curve A: BODIPY FL in pH 10 buffer, 50 nM, excited at 505 nm, excitation and emission slit 2.5 nm; Curve B: fluorescein in pH 10 borate buffer, 50 nM, excited at 488 nm, excitation and emission slit 2.5 nm; Curve C: compound 8 in pH 10 borate buffer, 50 nM, excited at 459 nm, excitation slit 2.5 nm, emission slit 8 nm; Curve D: compound 8 in methanol, 50 nM, excited at 459 nm, excitation slit 2.5 nm, emission slit 8 nm; Inset is UV spectrum of 8 in pH 10 borate buffer, 10 μM, peak absorption wavelength: 459 nm and 483 nm.
In FIG. 3 the fluorescence spectra of fluorescein, a BODPIY FL dye (Molecular Probes Inc., Eugene Oreg.), and xanthamide dye 8 are compared. Fluorescein and BODIPY dyes are popular, and many instruments have been set up for their measurement. Thus it is attractive that xanthamide dye 8 has a similar fluorescence emission relative to that of fluorescein and a typical BODIPY dye. […] This adds to the practicality of 8.

| photostability relative to fluorescein and a typical BODIPY dye [1] | absorbance maxima [2] | SMILES |
| --- | --- | --- |
| very good photostability |  | CN(C)C(=O)c1ccccc1-c1c2ccc(=O)cc-2oc2cc(OCC(=O)O)ccc12 [compound 5, [9-(2-Dimethylcarbamoyl-phenyl)-6-oxo-6H-xanthen-3-yloxy]-acetic acid] |
| remarkable photostability | 459 nm and 483 nm | COc1ccc2c(-c3ccccc3C(=O)N3CCC(C(=O)O)CC3)c3ccc(=O)cc-3oc2c1 [compound 8, 1-[2-(6-Methoxy-3-oxo-3H-xanthen-9-yl)-benzoyl]-piperidine-4-carboxylic acid] |

— patent US20040054195A1, “Xanthene derivatives” (priority 2003, published 2004)
